# Where two headings read alike, the source gives them in different places.
# Legend:
# [1] = test system: Key Broadleaf Weed and Crop Species; assay: Post-Emergent Test II (Table 5); assay type: in vivo; conditions: post-emergence, 336 h; for pest or weed control at 70 g/ha: application rate 70 (kg ai/ha; footnote: g ai/ha); for pest or weed control at 140 g/ha: application rate 140 (kg ai/ha; footnote: g ai/ha)
# In short: (§1)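 Post-emergence greenhouse spray, 1st-2nd true leaf stage; track sprayer, 187 L/ha; acetone/DMSO stock diluted in aqueous acetone/IPA/DMSO with Atplus 411F and Triton X-155; rates 1× to 1/16×; subirrigated; visual injury 0 (none) to 100% (complete kill) at 14 days.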
# [2] = test system: Key Grass and Sedge Weeds as well as Grass Crops; assay: Post-Emergent Test II (Table 6); assay type: in vivo; conditions: post-emergence, 336 h, 14 days after application; for pest or weed control at 70 g/ha: 70 g ai/ha; for pest or weed control at 140 g/ha: 140 g ai/ha
# In short: as §1
# [3] = Abutilon theophrasti, ABUTH: velvetleaf (Abutilon theophrasti), read-out: Visual Growth Reduction (%) 14 Days After Application ABUTH
# [4] = Amaranthus retroflexus, AMARE: redroot pigweed (Amaranthus retroflexus), read-out: Visual Growth Reduction (%) 14 Days After Application AMARE
# [5] = Brassica napus, BRSSS: oilseed rape, canola (Brassica napus), read-out: Visual Growth Reduction (%) 14 Days After Application BRSSS
# [6] = Chenopodium album, CHEAL: lambsquarters (Chenopodium album), read-out: Visual Growth Reduction (%) 14 Days After Application CHEAL
# [7] = Euphorbia heterophylla, EPHHL: wild poinsettia (Euphorbia heterophylla), read-out: Visual Growth Reduction (%) 14 Days After Application EPHHL
# [8] = Helianthus annuus, HELAN: sunflower (Helianthus annuus), read-out: Visual Growth Reduction (%) 14 Days After Application HELAN
# [9] = Viola tricolor, VIOTR: wild pansy (Viola tricolor), read-out: Visual Growth Reduction (%) 14 Days After Application VIOTR
# [10] = CYPSS, read-out: Visual Growth Reduction (%) 14 Days After Application CYPSS
# [11] = DIGSA: crabgrass (Digitaria sanguinalis), read-out: Visual Growth Reduction (%) 14 Days After Application DIGSA
# [12] = ECHSS, read-out: Visual Growth Reduction (%) 14 Days After Application ECHSS
# [13] = ORYSS (crop), read-out: Visual Growth Reduction (%) 14 Days After Application ORYSS
# [14] = SETFA: giant foxtail (Setaria faberi), read-out: Visual Growth Reduction (%) 14 Days After Application SETFA
# [15] = SORVU: grain sorghum (Sorghum vulgare), read-out: Visual Growth Reduction (%) 14 Days After Application SORVU
# [16] = TRZSS (crop), read-out: Visual Growth Reduction (%) 14 Days After Application TRZSS
# [17] = ZEAMX: maize, corn (Zea mays), read-out: Visual Growth Reduction (%) 14 Days After Application ZEAMX
SMILES,"pest or weed control at 70 g/ha [1, 3] [%]","pest or weed control at 140 g/ha [1, 3] [%]","pest or weed control at 70 g/ha [1, 4] [%]","pest or weed control at 140 g/ha [1, 4] [%]","pest or weed control at 70 g/ha [1, 5] [%]","pest or weed control at 140 g/ha [1, 5] [%]","pest or weed control at 70 g/ha [1, 6] [%]","pest or weed control at 140 g/ha [1, 6] [%]","pest or weed control at 70 g/ha [1, 7] [%]","pest or weed control at 140 g/ha [1, 7] [%]","pest or weed control at 70 g/ha [1, 8] [%]","pest or weed control at 140 g/ha [1, 8] [%]","pest or weed control at 70 g/ha [1, 9] [%]","pest or weed control at 140 g/ha [1, 9] [%]","pest or weed control at 70 g/ha [2, 10] [%]","pest or weed control at 140 g/ha [2, 10] [%]","pest or weed control at 70 g/ha [2, 11] [%]","pest or weed control at 140 g/ha [2, 11] [%]","pest or weed control at 70 g/ha [2, 12] [%]","pest or weed control at 140 g/ha [2, 12] [%]",also measured
"C=Cc1c(-c2cc(N)c(Cl)c(C(=O)OC)n2)ccc(Cl)c1F [Compound 79, methyl 4-amino-3-chloro-6-(4-chloro-3-fluoro-2-vinylphenyl)picolinate]",95 to 100,0 to 29,95 to 100,95 to 100,95 to 100,95 to 100,95 to 100,95 to 100,0 to 29,0 to 29,85 to 94,85 to 94,0 to 29,0 to 29,95 to 100,95 to 100,0 to 29,0 to 29,0 to 29,0 to 29,"pest or weed control at 70 g/ha [2, 13]: 0 to 29%; pest or weed control at 140 g/ha [2, 13]: 0 to 29%; pest or weed control at 70 g/ha [2, 14]: 0 to 29%; pest or weed control at 140 g/ha [2, 14]: 0 to 29%; pest or weed control at 70 g/ha [2, 15]: 0 to 29%; pest or weed control at 140 g/ha [2, 15]: 30 to 44%; pest or weed control at 70 g/ha [2, 16]: 0 to 29%; pest or weed control at 140 g/ha [2, 16]: 0 to 29%; pest or weed control at 70 g/ha [2, 17]: 0 to 29%; pest or weed control at 140 g/ha [2, 17]: 0 to 29%"
"COC(=O)c1nc(-c2ccc(Cl)c(OC)c2C(F)F)cc(N)c1Cl [Compound 60, methyl 4-amino-3-chloro-6-(4-chloro-2-(difluoromethyl)-3-methoxyphenyl)picolinate]",95 to 100,95 to 100,95 to 100,95 to 100,60 to 74,75 to 84,95 to 100,95 to 100,60 to 74,60 to 74,85 to 94,85 to 94,30 to 44,30 to 44,30 to 44,30 to 44,0 to 29,30 to 44,0 to 29,30 to 44,"pest or weed control at 70 g/ha [2, 13]: 0 to 29%; pest or weed control at 140 g/ha [2, 13]: 0 to 29%; pest or weed control at 70 g/ha [2, 14]: 0 to 29%; pest or weed control at 140 g/ha [2, 14]: 0 to 29%; pest or weed control at 70 g/ha [2, 15]: 0 to 29%; pest or weed control at 140 g/ha [2, 15]: 45 to 59%; pest or weed control at 70 g/ha [2, 16]: 0 to 29%; pest or weed control at 140 g/ha [2, 16]: 0 to 29%; pest or weed control at 70 g/ha [2, 17]: 0 to 29%; pest or weed control at 140 g/ha [2, 17]: 0 to 29%"
Cc1c(-c2nc(C(=O)O)c(Cl)c(N)c2F)ccc(Cl)c1F [Compound 67],85 to 94,85 to 94,95 to 100,95 to 100,95 to 100,95 to 100,95 to 100,95 to 100,0 to 29,0 to 29,95 to 100,95 to 100,0 to 29,0 to 29,0 to 29,0 to 29,0 to 29,0 to 29,0 to 29,0 to 29,"pest or weed control at 70 g/ha [2, 13]: 0 to 29%; pest or weed control at 140 g/ha [2, 13]: 0 to 29%; pest or weed control at 70 g/ha [2, 14]: 0 to 29%; pest or weed control at 140 g/ha [2, 14]: 0 to 29%; pest or weed control at 70 g/ha [2, 15]: 0 to 29%; pest or weed control at 140 g/ha [2, 15]: 0 to 29%; pest or weed control at 70 g/ha [2, 16]: 0 to 29%; pest or weed control at 140 g/ha [2, 16]: 0 to 29%; pest or weed control at 70 g/ha [2, 17]: 0 to 29%; pest or weed control at 140 g/ha [2, 17]: 0 to 29%"

# Reference: patent US10765114B2, “4-amino-6-(pyridyl and 2-substitutedphenyl)-picolinates and 6-amino-2-(pyridyl and 2-substitutedphenyl)-pyrimidine-4-carboxylates and their use as herbicides” (Dow AgroSciences LLC, priority 2013, dated 2020)
